In ChEMBL document CHEMBL5329153, “Is structural hybridization invoking new dimensions for antimalarial drug discovery research?” (RSC Med Chem, 2023):
One block for each molecule: values may come before it.

What was measured:
Plasmodium falciparum [1] = experiment: Antimalarial activity against Plasmodium falciparum 3D7 assessed as parasitic growth inhibition measured after 42 hrs by [3H]hypoxanthine incorporation assay; type: functional, organism-based
Plasmodium falciparum [2] = experiment: Antimalarial activity against Chloroquine sensitive Plasmodium falciparum RKL-2 assessed as parasitic growth inhibition measured after 36 to 40 hrs by Giemsa staining based assay; type: functional, organism-based
Plasmodium falciparum [3] = experiment: Antimalarial activity against Chloroquine sensitive Plasmodium falciparum RKL-9 assessed as parasitic growth inhibition measured after 36 to 40 hrs by Giemsa staining based assay; type: functional, organism-based
Hemozoin = experiment: Inhibition of beta-hematin formation
Plasmodium falciparum [4] = experiment: Antimalarial activity against mefloquine resistant Plasmodium falciparum F32 assessed as parasitic growth inhibition measured after 48 hrs; type: functional, organism-based; conditions: F32, 48 h
Plasmodium falciparum [5] = experiment: Antimalarial activity against mefloquine resistant Plasmodium falciparum Thai assessed as parasitic growth inhibition measured after 48 hrs; type: functional, organism-based
Plasmodium falciparum [6] = experiment: Antimalarial activity against mefloquine resistant Plasmodium falciparum FcB1 assessed as parasitic growth inhibition measured after 48 hrs; type: functional, organism-based; conditions: FcB1, 48 h
Plasmodium falciparum [7] = experiment: Antimalarial activity against mefloquine resistant Plasmodium falciparum K1 assessed as parasitic growth inhibition measured after 48 hrs; type: functional, organism-based; conditions: K1, 48 h
Plasmodium falciparum [8] = experiment: Antimalarial activity against chloroquine resistant Plasmodium falciparum F32 assessed as parasitic growth inhibition measured after 48 hrs; type: functional, organism-based; conditions: F32, 48 h
Plasmodium falciparum [9] = experiment: Antimalarial activity against chloroquine resistant Plasmodium falciparum Thai assessed as parasitic growth inhibition measured after 48 hrs; type: functional, organism-based
Plasmodium falciparum [10] = experiment: Antimalarial activity against chloroquine resistant Plasmodium falciparum FcB1 assessed as parasitic growth inhibition measured after 48 hrs; type: functional, organism-based; conditions: FcB1, 48 h
Plasmodium falciparum [11] = experiment: Antimalarial activity against chloroquine resistant Plasmodium falciparum K1 assessed as parasitic growth inhibition measured after 48 hrs; type: functional, organism-based; conditions: K1, 48 h
Plasmodium falciparum [12] = experiment: Antimalarial activity against Chloroquine sensitive Plasmodium falciparum 3D7 assessed as parasitic growth inhibition measured after 24 hrs; type: functional, organism-based; conditions: 3D7, 24 h
Plasmodium falciparum [13] = experiment: Antimalarial activity against Chloroquine sensitive Plasmodium falciparum D6 assessed as parasitic growth inhibition; type: functional, organism-based
Plasmodium falciparum [14] = experiment: Antimalarial activity against Chloroquine resistant Plasmodium falciparum W2 assessed as parasitic growth inhibition; type: functional, organism-based
Plasmodium falciparum [15] = experiment: Potency index, ratio of chloroquine IC50 to test compound IC50 for antimalarial activity against Chloroquine resistant Plasmodium falciparum W2 assessed as parasitic growth inhibition; type: functional
Plasmodium falciparum [16] = experiment: Potency index, ratio of chloroquine IC50 to test compound IC50 for antimalarial activity against Chloroquine sensitive Plasmodium falciparum D6 assessed as parasitic growth inhibition; type: functional
Plasmodium falciparum [17] = experiment: Antimalarial activity against Plasmodium falciparum male gametocytes assessed as parasitic growth inhibition; type: functional, organism-based
Plasmodium falciparum [18] = experiment: Antimalarial activity against Plasmodium falciparum female gametocytes assessed as parasitic growth inhibition; type: functional, organism-based
Plasmodium falciparum [19] = experiment: Antimalarial activity against Plasmodium falciparum male gametocytes assessed as parasitic growth inhibition by exflagellation assay; type: functional, organism-based
Plasmodium falciparum [20] = experiment: Potency index, ratio of mefloquine IC50 to test compound IC50 for antimalarial activity against Plasmodium falciparum female gametocytes assessed as parasitic growth inhibition; type: functional
Plasmodium falciparum [21] = experiment: Potency index, ratio of artesunate IC50 to test compound IC50 for antimalarial activity against Plasmodium falciparum female gametocytes assessed as parasitic growth inhibition; type: functional
Plasmodium falciparum [22] = experiment: Antimalarial activity against Plasmodium falciparum 3D7 assessed as parasitic growth inhibition measured after 72 hrs by SYBR Green dye based assay; type: functional, organism-based; conditions: 3D7, 72 h
Plasmodium falciparum [23] = experiment: Antimalarial activity against Plasmodium falciparum 3D7 assessed as parasitic growth inhibition; type: functional, organism-based
Plasmodium falciparum [24] = experiment: Antimalarial activity against Plasmodium falciparum Dd2 assessed as parasitic growth inhibition; type: functional, organism-based
Plasmodium falciparum [25] = experiment: Antimalarial activity against Plasmodium falciparum K1 assessed as parasitic growth inhibition; type: functional, organism-based
Plasmodium falciparum [26] = experiment: Antimalarial activity against Chloroquine sensitive Plasmodium falciparum 3D7 assessed as parasitic growth inhibition measured after 3 days by ELISA assay; type: functional, organism-based; conditions: 3D7, 72 h
Plasmodium falciparum [27] = experiment: Antimalarial activity against Chloroquine resistant Plasmodium falciparum Dd2 assessed as parasitic growth inhibition measured after 3 days by ELISA assay; type: functional, organism-based; conditions: Dd2, 72 h

Structure (SMILES): COc1ccc2cc3[n+](cc2c1OCc1cn(-c2ccc(S(=O)(=O)Nc4ccc(F)cc4)cc2)nn1)CCc1cc2c(cc1-3)OCO2.[Cl-]
IC50 (Plasmodium falciparum [1]): 0.15 µg/mL

Structure (SMILES): COc1ccc2cc3[n+](cc2c1OCc1cn(-c2ccc(S(=O)(=O)Nc4ccc(Cl)cc4)cc2)nn1)CCc1cc2c(cc1-3)OCO2.[Cl-]
IC50 (Plasmodium falciparum [1]): 0.1 µg/mL

Structure (SMILES): O=C1C(O)=C(NCCNc2ccnc3cc(Cl)ccc23)C(=O)c2ccccc21
IC50 (Plasmodium falciparum [2]): 391 nM
IC50 (Plasmodium falciparum [3]): 684 nM

IC50 (Hemozoin): 390 nM
Structure (SMILES): COc1cc2c(cc1OC)CC(Nc1ccnc3cc(Cl)ccc13)C2

Structure (SMILES): O=C1C(O)=C(N2CCN(c3ccnc4cc(Cl)ccc34)CC2)C(=O)c2ccccc21
IC50 (Plasmodium falciparum [2]): 391 nM
IC50 (Plasmodium falciparum [3]): 1090 nM

Structure (SMILES): C[C@H]1C[C@@H]2C[C@@H]3CC[C@H]4OC(C(F)(F)F)=C(COCCOC(=O)CCC(=O)OC(c5cc(C(F)(F)F)nc6c(C(F)(F)F)cccc56)C5CCCCN5)[C@H](C1)[C@]24OO3 (some centres not stated)
IC50 (Plasmodium falciparum [4]): 2.4 nM
IC50 (Plasmodium falciparum [5]): 2.4 nM
IC50 (Plasmodium falciparum [6]): 2.4 nM
IC50 (Plasmodium falciparum [7]): 2.4 nM
IC50 (Plasmodium falciparum [8]): 2.4 nM
IC50 (Plasmodium falciparum [9]): 2.4 nM
IC50 (Plasmodium falciparum [10]): 2.4 nM
IC50 (Plasmodium falciparum [11]): 2.4 nM

Structure (SMILES): Cc1ccc(-c2nn(-c3nc4ccccc4s3)cc2/C=N\c2ccc(Cl)cc2)cc1
EC50 (Plasmodium falciparum [12]): 1980 nM

Structure (SMILES): Cc1cc(NCCCCNc2ccnc3cc(Cl)ccc23)nc(Nc2ccc(C(=O)N3CCOCC3)cc2)n1
IC50 (Plasmodium falciparum [13]): 32 nM
IC50 (Plasmodium falciparum [14]): 33 nM
Ratio IC50 (Plasmodium falciparum [15]): 11
Ratio IC50 (Plasmodium falciparum [16]): 11

Structure (SMILES): CC1=C(CN2CCCCC2C(O)c2cc(C(F)(F)F)nc3c(C(F)(F)F)cccc23)[C@@H]2C[C@@H](C)C[C@@H]3C[C@]4(C)CC[C@@H](O1)[C@@]32OO4 (some centres not stated)
IC50 (Plasmodium falciparum [4]): 2.4 nM
IC50 (Plasmodium falciparum [5]): 2.4 nM
IC50 (Plasmodium falciparum [6]): 2.4 nM
IC50 (Plasmodium falciparum [7]): 2.4 nM
IC50 (Plasmodium falciparum [8]): 2.4 nM
IC50 (Plasmodium falciparum [9]): 2.4 nM
IC50 (Plasmodium falciparum [10]): 2.4 nM
IC50 (Plasmodium falciparum [11]): 2.4 nM

IC50 (Hemozoin): 480 nM
Structure (SMILES): COc1ccc(OC)c2c1CC(Nc1ccnc3cc(Cl)ccc13)C2

Structure (SMILES): Cc1ccc(-c2nn(-c3nc4ccccc4s3)cc2/C=N\c2cccc(Cl)c2)cc1
EC50 (Plasmodium falciparum [12]): 1950 nM

Structure (SMILES): C[C@H]1[C@@H](OC(=O)CCC(=O)O)O[C@@H]2C[C@@]3(C)CC[C@H]4[C@H](C)CC[C@@H]1[C@@]24OO3.Cc1cccc2c(C(O)C3CCCCN3)cc(C(F)(F)F)nc12 (racemic)
IC50 (Plasmodium falciparum [17]): 4600 nM
IC50 (Plasmodium falciparum [18]): 20 nM
IC50 (Plasmodium falciparum [19]): 17 nM
Ratio IC50 (Plasmodium falciparum [20]): 280
Ratio IC50 (Plasmodium falciparum [21]): 15

Structure (SMILES): C[C@@H]1CC[C@H]2[C@@H](C)C(=O)O[C@@H]3O[C@@]4(C)CC[C@@H]1[C@]32OO4 [ARTEMISININ]
IC50 (Plasmodium falciparum [17]): 12700 nM
IC50 (Plasmodium falciparum [18]): 300 nM
IC50 (Plasmodium falciparum [19]): 120 nM

Structure (SMILES): CCN(CC)CCCC(C)Nc1ccnc2cc(Cl)ccc12 (configuration not stated) [CHLOROQUINE]
EC50 (Plasmodium falciparum [22]): 9.8 nM
EC50 (Plasmodium falciparum [23]): 12.7 nM
EC50 (Plasmodium falciparum [24]): 165 nM
EC50 (Plasmodium falciparum [25]): 303 nM
IC50 (Hemozoin): 180 nM

Structure (SMILES): OC(c1cc(C(F)(F)F)nc2c(C(F)(F)F)cccc12)C1CCCCN1 (configuration not stated) [MEFLOQUINE]
IC50 (Plasmodium falciparum [17]): 16500 nM
IC50 (Plasmodium falciparum [18]): 5600 nM

Structure (SMILES): COc1cc(NC(C)CCCN)c2ncccc2c1 (configuration not stated) [PRIMAQUINE]
IC50 (Plasmodium falciparum [26]): 1500 nM
IC50 (Plasmodium falciparum [27]): 4300 nM
